From patent publication US5491072A, “N-alkylacridan carboxyl derivatives useful for chemiluminescent detection” (Lumigen, Inc., priority 1993, dated 1996) come the findings set out here.

In one test the target is T1, HRP (Armoracia rusticana, UniProt P00433).
T1 sequence (P00433 31-338 limits assumed): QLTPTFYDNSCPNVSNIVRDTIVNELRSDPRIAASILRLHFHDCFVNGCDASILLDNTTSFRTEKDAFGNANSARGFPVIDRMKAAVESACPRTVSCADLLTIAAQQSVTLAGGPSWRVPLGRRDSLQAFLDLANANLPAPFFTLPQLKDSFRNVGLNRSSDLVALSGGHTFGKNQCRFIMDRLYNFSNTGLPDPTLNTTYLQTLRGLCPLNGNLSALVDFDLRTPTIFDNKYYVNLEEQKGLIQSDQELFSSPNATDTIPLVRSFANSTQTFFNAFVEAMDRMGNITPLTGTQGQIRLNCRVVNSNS
Nature of the test: Comparison of detection of HRP with luminol reagent and 1b reagent. It is filed as biochemical, horseradish. The following applies: corrected signal-to-background at 5 min, 37° C., comparing log (S-B)/B=0. The protocol: The experiments in the following examples were performed using a Turner Designs TD-20e luminometer fitted with neutral density filter for light attenuation. Data collection, analysis and display were software controlled. Constant temperature was maintained by means of an external circulating water bath connected to the luminometer.
Forty μL of a solution containing 1b (0.05 mM), p-iodophenol (2.25 mM), H2 O2 (0.2 mM), Tween 20 (0.5%), EDTA (1 mM) in 0.1M tris, pH 8.0 and forty μL of the commercial reagent (Amersham, Arlington Heights, Ill.) were incubated at 37° C. and reacted with varying amounts of HRP. FIG. 6 compares the corrected signal-to-background ratios at 5 min. […] Measuring light intensity at 15 min provides an additional reduction in detection limit with the reagent containing 1b, while the luminol reagent results are unchanged.

Another test concerns human transferrin. Nature of the test: Chemiluminescent detection of proteins by Western blot. The text has this: To determine the sensitivity of reagents of the present invention for detection of proteins by Western blotting, a model system of transferrin was used to provide polypeptide bands in known quantities.
Rabbit anti-goat IgG-peroxidase conjugate and rabbit anti-goat IgG-peroxidase were obtained from Cappel Products (Durham, N.C.). Human transferrin and fractionated goat anti-human transferrin serum were purchased from Sigma Chemical Co. (St. Louis, Mo.)). The IgG sample was centrifuged at 10,000 g for two minutes and the supernatant was used in the immunological reaction. Immobilon™-P transfer membrane was obtained from Millipore Corp. (Bedford, Mass.). Kodak (Rochester, N.Y.) X-OMAT AR and OMC films were used in the assay procedure.
SDS-PAGE was performed utilizing the buffer system described by Laemmli (U. K. Laemmli, Nature (London), 227, 680 (1970)). The stacking gel was 4.38% acrylamide: 0.12% bisacrylamide. The separating gel was 6.81% acrylamide: 0.19% bisacrylamide. Following electrophoresis the gel was equilibrated for 7-8 minutes with the transfer buffer which contained 20 mM Tris, 153 mMglycine and 20% (v/v) methanol. The gel, sandwiched between a sheet of transfer membrane and a sheet of chromatography paper 3MM (Whatman), was placed in the transfer unit (Bio-Rad Laboratories, Richmond, Calif.). […]

With `CN1c2ccccc2C(C(=O)Oc2ccc(O)cc2)c2ccccc21` [Compound 1b, 4'-Hydroxyphenyl 10-methylacridan-9-carboxylate], the “sensitivity of detection of HRP compared to the luminol reagent” value at HRP is recorded as “greater sensitivity of detection”. Also, the “duration of detectable chemiluminescence on membrane (X-ray film)” value in the test with human transferrin (HRP-conjugate on membrane, Western blot) is on record as “at least three hours”. In addition, the “transferrin standards clearly visible down to” value with human transferrin (detection reagent with 5 × 10^-5 M 1b and NaBO3, 7 sec exposure X-OMAT AR film or 30 second exposure OMC film) stood at 20 pg/slot.
